In patent publication US5612208A, “Ascorbate oxidase, gene encoding the same, process for producing the same, and reagent composition using the same” (Amano Pharmaceutical Co., Ltd., priority 1994, dated 1997):
Read-outs that look alike come from different tables or passages of the source.

Legend:
[1] = tested on: L-ascorbate oxidase (ASOD) of Eupenicillium brefeldianum APC-9315, purified native enzyme; format: biochemical
Protocol: The relative residual activity of ASOD after incubation with various inhibitors at 37° C. for 2 hours.
(§1) To 0.1 ml of a sample to be assayed is added 0.5 ml of 10 mM Na2 HPO4 and 0.45 ml of 0.2M KH2 PO4 containing 1 mM EDTA, and the mixture is mixed and preincubated at 30° C. for 5 minutes. To the mixture is added 0.05 ml of a 10 mM substrate solution of L-ascorbic acid in 0,001N HCl containing 1 mM EDTA, followed by incubation at 30° C. for 10 minutes. The reaction is stopped by addition of 3.0 ml of 0.2N HCl, and a reduction in absorbance at 245 nm is measured. The amount of ASOD in the sample which decomposes 1 μmol of L-ascorbic acid per 1 minute is taken as one unit.

[2] = tested on: ascorbate oxidase (ASO) of Acremonium sp. HI-25; conditions: data from Biosci. Biotechnol. Biochem., 56 (6), 847-852 (1992) & JP-A-3-236766; cited from earlier work
[3] = tested on: ascorbate oxidase (ASO) from spores of Myrothecium verrucaria; conditions: data from Nihon Eiyo-Shokuryo Gakkaishi, 40, (1), 47-51 (1987); cited from earlier work
[4] = target: T1, ascorbate oxidase (ASO) of cucumber (Cucumis sativus, UniProt P14133); conditions: data from J. Biochem., 64 189 (1968); cited from earlier work
T1 construct: cucumbers (T. Nakamura, N. Makino and Y. Ogura, J. Biochem., Vol. 64, p. 189 (1968)); host or cells: enzyme isolated from cucumbers
T1 sequence (P14133 34-587): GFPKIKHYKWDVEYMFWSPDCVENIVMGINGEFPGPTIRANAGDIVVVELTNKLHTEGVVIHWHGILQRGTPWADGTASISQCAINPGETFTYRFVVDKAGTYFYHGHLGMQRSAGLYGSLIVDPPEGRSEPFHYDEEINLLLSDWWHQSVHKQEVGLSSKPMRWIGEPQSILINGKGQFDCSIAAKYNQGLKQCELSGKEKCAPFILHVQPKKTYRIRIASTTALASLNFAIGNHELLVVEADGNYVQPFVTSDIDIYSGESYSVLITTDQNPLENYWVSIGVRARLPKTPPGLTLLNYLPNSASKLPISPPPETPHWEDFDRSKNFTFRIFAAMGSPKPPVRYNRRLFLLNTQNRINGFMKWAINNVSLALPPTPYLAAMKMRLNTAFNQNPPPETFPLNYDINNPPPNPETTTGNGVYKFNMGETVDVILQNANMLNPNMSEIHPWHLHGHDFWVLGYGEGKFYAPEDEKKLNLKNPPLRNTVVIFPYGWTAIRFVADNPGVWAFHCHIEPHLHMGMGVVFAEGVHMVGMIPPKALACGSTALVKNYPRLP

[5] = tested on: L-ascorbate oxidase (ASOD) of Eupenicillium brefeldianum APC-9315, purified native enzyme; assay: Michaelis constant (Km) for L-ascorbic acid, spectrophotometry method; format: biochemical; conditions: by the spectrophotometry method
Protocol: (8) Michaelis Constant (Km) for L-Ascorbic Acid
4.9×10^-4 M (by the spectrophotometry method)
as §1

[6] = tested on: ascorbate oxidase (ASO) from spores of Myrothecium verrucaria; conditions: data from Nihon Eiyo-Shokuryo Gakkaishi, 40, (1), 47-51 (1987); read-out: Km (L-Ascorbate); cited from earlier work
[7] = tested on: ascorbate oxidase of microorganism of the genus Trichoderma or Mortierella (JP-A-6-209770); conditions: data from JP-A-6-209770; read-out: Km (L-Ascorbate); cited from earlier work
[8] = tested on: ascorbate oxidase of microorganism of the genus Trichoderma or Mortierella (JP-A-6-209770); conditions: data from JP-A-6-209770; cited from earlier work
[9] = incubation with inhibitor at 37° C. for 2 hours, inhibitor concentration not printed

Q: Which “Inhibition by inhibitor (relative residual activity), in words” value [1, 9] does the source give for `[N-]=[N+]=[N-]` [sodium azide] here?
A: Its value is “not substantially inhibited”.

Q: What about the “Inhibition by inhibitor (relative residual activity), in words” value ([1]; incubation with inhibitor at 37° C. for 2 hours, inhibitor concentration not printed, listed as Sodium Azide) of the same compound?
A: The value was “uninhibited”.

Q: And the “Inhibition by inhibitor, in words” value [2]?
A: Its value is “inhibited”.

Q: And the “Inhibition by inhibitor, in words” value [3]?
A: Its value is “uninhibited”.

Q: What about the “Inhibition by inhibitor, in words” value [4] of the same compound?
A: Its value is “inhibited”.

Q: For `O=C1O[C@H]([C@@H](O)CO)C(O)=C1O` [L-Ascorbic Acid, L-ascorbic acid], which Km [5] is on record?
A: The Km was 490 µM.

Q: And the Km [6]?
A: Its Km is 3000 µM.

Q: What about the Km [7] of the same compound?
A: Its Km is 700 µM.

Q: With `O[C@H](CS)[C@H](O)CS` (racemic) [dithiothreitol] as the compound, how does the “Inhibition by inhibitor (relative residual activity), in words” value [1, 9] read?
A: The value was “not substantially inhibited”.

Q: For `O=C(O)CI` [monoiodoacetic acid], which Inhibition by inhibitor [1] is on record?
A: Its Inhibition by inhibitor is 50%.

Q: And the “Inhibition by inhibitor (relative residual activity), in words” value [1]?
A: The value was “inhibited partially”.

Q: And the “Inhibition by inhibitor, in words” value [8]?
A: The value was “uninhibited”.
